Experimental data: patent publication US20110311661A1, “Plant Extracts and Dermatological Uses Thereof” (priority 2003, published 2011)

How the values were obtained:
[1] = test system: human skin keratinocytes; assay: IL-8 release ELISA; format: cell-based; settings: positive control at 2.5 μM; 48 hours
Procedure: The amount of Interleukin-8 (IL-8) released after exposure of keratinocytes to a plant extract, as described below, can be used to quantify any possible irritation reaction to the extract.
IL-8 release was evaluated in human skin keratinocytes (Cascade Biologics, Portland, Oreg.) using the Quantikine hIL-8 ELISA kit (R&D Systems, Minneapolis, Minn.). Keratinocytes were first grown in a 96-well plate using the complete M154 (M154+HKGS from Cascade Biologics). This media was also used as control. Phorbol 12-myristate 13-acetate (PMA) (Sigma-Aldrich Canada, Oakville, Ontario) at a concentration of 2.5 μM was used as a positive control. All tested plant extracts and the controls were diluted in complete M154 at a non-cytotoxic concentration (i.e. the concentration that provided 100% viability of keratinocytes as shown in Table 10). Cells were seeded into 96-well plates at a concentration of 8×10^3 cells/well in complete M154 media. Plates were incubated for 48 hours at 37° C. in a humidified 5% CO2 atmosphere. After incubation, the medium was removed and 200 μl of sample was added to the wells (all in duplicate). […]
After incubation, each well was washed four times with wash buffer. […] The plate was then gently mixed and the absorbance read at 450 nm on the Spectrafluor Plus plate reader (Tecan). The reading was taken within 15 minutes following addition of the stop solution. […]

[2] = test system: human skin fibroblasts; assay: Inhibition of dermal contraction, fibroblast-populated collagen I gel; format: cell-based; settings: positive control at 50 μM; collagen gels up to 7 days
Procedure: The skin model comprises human skin fibroblasts imbedded in a collagen I matrix and provides an in vitro representation of dermal contraction resulting from tractional forces generated by fibroblasts.
The ability of exemplary plant extracts to inhibit dermal contraction was evaluated on human skin fibroblasts (Cascade Biologics, Portland, Oreg.). The cells were imbedded in a collagen I matrix to create a derm-like environment. Fibroblasts were grown in complete M106 to 80% confluence. Free-floating fibroblast-populated collagen gels were prepared in 24-well plates. […] The mix was kept on ice until distribution. The derm-like gels were allowed to polymerize for 1 hour at 37° C. in a humidified 5% CO2 atmosphere. After incubation, the gels were detached from the wells. […] FBS at a final concentration of 10% was added to each well. The plate was incubated for a maximum of 7 days at 37° C. in a humidified 5% CO2 atmosphere. All assays were performed in duplicate. Contraction was measured beginning at day 3. Contracting gels were digitally photographed and the gel areas were calculated using ImagePro software.

SMILES | IL-8 release [1] | inhibition of contraction [2]
CCCCCCCCCCCCCC(=O)O[C@@H]1[C@@H](C)[C@@]2(O)[C@@H](C=C(CO)C[C@]3(O)C(=O)C(C)=C[C@@H]23)[C@@H]2C(C)(C)[C@]12OC(C)=O [PMA, Phorbol 12-myristate 13-acetate] | highest level of IL-8 release | 
CNC(=O)[C@H](Cc1c[nH]c2ccccc12)NC(=O)[C@@H](CC(=O)NO)CC(C)C [GM6001] |  | limited, but not complete, inhibition of contraction
